# Target: T1, CFTR (Homo sapiens, UniProt P13569, DEL508-508)
# T1 construct: Primary CF airway epithelial cells were obtained from the UNC Cystic Fibrosis Tissue Procurement and Cell Culture Core; host or cells: primary CF airway epithelial cells, differentiated at the air-liquid interface
# Test: Equivalent current assay in primary CF airway epithelial cells (NAUC, combination with 1st site corrector FDL169 or VX-809)
# Format: cell-based
# Conditions: 37° C., 24 h
# [1] = test compound 3 μM in combination with 1st site corrector VX-809 (3 μM)
# [2] = test compound 10 μM in combination with 1st site corrector VX-809 (3 μM)
# [3] = test compound 1 μM in combination with 1st site corrector FDL169 (3 μM)
# [4] = test compound 3 μM in combination with 1st site corrector FDL169 (3 μM)
# [5] = test compound 10 μM in combination with 1st site corrector FDL169 (3 μM)
# [6] = test compound 1 μM in combination with 1st site corrector VX-809 (3 μM)
# T1 sequence (P13569 with tags, fused parts or gaps DEL508-508): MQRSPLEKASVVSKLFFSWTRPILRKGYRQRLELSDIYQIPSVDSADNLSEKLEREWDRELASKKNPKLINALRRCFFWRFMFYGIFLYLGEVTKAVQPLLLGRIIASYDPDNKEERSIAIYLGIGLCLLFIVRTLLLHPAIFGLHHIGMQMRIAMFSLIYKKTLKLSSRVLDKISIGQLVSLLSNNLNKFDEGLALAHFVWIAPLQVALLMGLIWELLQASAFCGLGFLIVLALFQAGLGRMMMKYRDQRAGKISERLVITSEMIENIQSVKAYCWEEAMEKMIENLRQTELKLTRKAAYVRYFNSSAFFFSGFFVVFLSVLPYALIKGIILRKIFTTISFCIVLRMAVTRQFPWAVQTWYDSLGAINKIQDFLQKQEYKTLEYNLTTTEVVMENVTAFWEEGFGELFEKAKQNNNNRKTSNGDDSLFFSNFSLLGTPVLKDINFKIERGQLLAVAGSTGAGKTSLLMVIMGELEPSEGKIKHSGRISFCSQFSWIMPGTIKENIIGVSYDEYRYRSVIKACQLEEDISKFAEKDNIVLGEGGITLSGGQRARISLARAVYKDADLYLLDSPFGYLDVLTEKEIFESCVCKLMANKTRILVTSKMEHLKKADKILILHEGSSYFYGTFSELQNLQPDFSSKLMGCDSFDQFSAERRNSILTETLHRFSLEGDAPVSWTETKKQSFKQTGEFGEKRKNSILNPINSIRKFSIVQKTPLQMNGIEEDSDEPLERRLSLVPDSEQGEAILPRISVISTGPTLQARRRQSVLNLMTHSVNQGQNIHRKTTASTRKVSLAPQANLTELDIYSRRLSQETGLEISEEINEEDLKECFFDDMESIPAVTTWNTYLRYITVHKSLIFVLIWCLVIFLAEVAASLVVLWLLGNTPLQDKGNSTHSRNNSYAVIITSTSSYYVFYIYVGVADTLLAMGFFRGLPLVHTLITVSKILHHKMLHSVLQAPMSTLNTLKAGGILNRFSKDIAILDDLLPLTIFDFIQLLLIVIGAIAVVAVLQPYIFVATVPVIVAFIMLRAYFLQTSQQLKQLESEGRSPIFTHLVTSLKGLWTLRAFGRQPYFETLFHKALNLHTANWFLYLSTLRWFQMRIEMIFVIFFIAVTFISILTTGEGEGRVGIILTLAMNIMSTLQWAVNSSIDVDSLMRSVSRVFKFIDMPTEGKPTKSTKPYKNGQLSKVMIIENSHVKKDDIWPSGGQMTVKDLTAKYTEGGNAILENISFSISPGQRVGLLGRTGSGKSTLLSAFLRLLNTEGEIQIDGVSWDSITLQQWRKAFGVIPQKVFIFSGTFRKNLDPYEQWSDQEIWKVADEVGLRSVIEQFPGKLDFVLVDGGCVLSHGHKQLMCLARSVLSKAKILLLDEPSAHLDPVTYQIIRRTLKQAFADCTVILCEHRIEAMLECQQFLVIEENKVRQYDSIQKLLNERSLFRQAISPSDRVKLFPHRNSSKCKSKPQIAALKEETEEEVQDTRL
smiles,measurement,setting,value
COc1cc(C(F)(F)F)cc(NC(=O)C2C3C[C@](C)(O)CN3C3(C(=O)Nc4c(Cl)cc(Cl)cc43)C2C(=O)O)n1 (stereo partly drawn) [Example 6],Nauc @ 3 μM,[1],+++ (NAUC “+++” refers to an observed NAUC>170% of positive control)
same,Nauc @ 10 μM,[2],+++ (NAUC “+++” refers to an observed NAUC>170% of positive control)
CC(C)CN(C(=O)[C@H]1[C@H]2CC(F)(F)CN2[C@]2(C(=O)Nc3c(Cl)cc(Cl)cc32)[C@H]1C(=O)O)c1cc(Cl)cc(Cl)c1 [Example 151],Nauc @ 1 μM,[3],+++ (NAUC “+++” refers to an observed NAUC>170% of positive control)
same,Nauc @ 3 μM,[4],+++ (NAUC “+++” refers to an observed NAUC>170% of positive control)
same,Nauc @ 10 μM,[5],++ (NAUC “++” refers to an observed NAUC 170-140% of positive control)
Cn1ccc2cc(NC(=O)[C@H]3[C@H]4CC(F)(F)CN4[C@]4(C(=O)Nc5c(Cl)cc(Cl)cc54)[C@H]3C(=O)O)ccc21 [Example 137],Nauc @ 1 μM,[3],+ (NAUC “+” refers to an observed NAUC <140% of positive control)
same,Nauc @ 3 μM,[4],+ (NAUC “+” refers to an observed NAUC <140% of positive control)
COCCN1C(=O)[C@]2(c3cc(Cl)cc(Cl)c31)[C@@H](C(=O)O)[C@@H](C(=O)N(CC1CC1)c1cc(Cl)cc(Cl)c1)[C@H]1CC(F)(F)CN12 [Example 203],Nauc @ 1 μM,[3],+ (NAUC “+” refers to an observed NAUC <140% of positive control)
same,Nauc @ 3 μM,[4],+ (NAUC “+” refers to an observed NAUC <140% of positive control)
O=C(NCCc1ccc(Cl)cc1)C1C2CC(F)(F)CN2C2(C(=O)Nc3c(Cl)cc(Cl)cc32)C1C(=O)O (stereo not drawn) [Example 52],Nauc @ 3 μM,[1],++ (NAUC “++” refers to an observed NAUC 170-140% of positive control)
same,Nauc @ 10 μM,[2],+++ (NAUC “+++” refers to an observed NAUC>170% of positive control)
"CON(C)C(=O)[C@H]1[C@@H](C(=O)Nc2cc(Cl)cc(Cl)c2)[C@H]2CC(F)(F)CN2[C@]12C(=O)Nc1c(Cl)cc(Cl)cc12 [Example 227, (1′R,2′S,3R,7a′R)-5,7-dichloro-N1′-(3,5-dichlorophenyl)-6′,6′-difluoro-N2′-methoxy-N2′-methyl-2-oxo-1′,2′,5′,6′,7′,7a′-hexahydrospiro [indoline-3,3′-pyrrolizine]-1′,2′-dicarboxamide]",Nauc @ 1 μM,[6],+ (NAUC “+” refers to an observed NAUC <140% of positive control)
same,Nauc @ 3 μM,[1],++ (NAUC “++” refers to an observed NAUC 170-140% of positive control)
same,Nauc @ 10 μM,[2],++ (NAUC “++” refers to an observed NAUC 170-140% of positive control)
O=C(Nc1cc(Cl)cc(Cl)c1)C1C2C[C@@](O)(C(F)(F)F)CN2C2(C(=O)Nc3c(Cl)cc(Cl)cc32)C1C(=O)O (stereo partly drawn) [Example 58],Nauc @ 3 μM,[1],+ (NAUC “+” refers to an observed NAUC <140% of positive control)
same,Nauc @ 10 μM,[2],+++ (NAUC “+++” refers to an observed NAUC>170% of positive control)
O=C(Nc1cc(Cl)c(OC(F)F)c(Cl)c1)C1C2CC(F)(F)CN2C2(C(=O)Nc3c(Cl)cc(Cl)cc32)C1C(=O)O (stereo not drawn) [Example 20],Nauc @ 3 μM,[1],+++ (NAUC “+++” refers to an observed NAUC>170% of positive control)
same,Nauc @ 10 μM,[2],+++ (NAUC “+++” refers to an observed NAUC>170% of positive control)
O=C(Nc1ccc2ccccc2c1)[C@H]1[C@H]2CC(F)(F)CN2[C@]2(C(=O)Nc3c(Cl)cc(Cl)cc32)[C@H]1C(=O)O [Example 117],Nauc @ 1 μM,[6],+ (NAUC “+” refers to an observed NAUC <140% of positive control)
same,Nauc @ 3 μM,[1],++ (NAUC “++” refers to an observed NAUC 170-140% of positive control)
same,Nauc @ 10 μM,[2],+ (NAUC “+” refers to an observed NAUC <140% of positive control)
COc1c(Cl)cc(N(C)C(=O)[C@H]2[C@H]3CC(F)(F)CN3[C@]3(C(=O)Nc4c(Cl)cc(Cl)cc43)[C@H]2C(=O)O)cc1Cl [Example 179],Nauc @ 1 μM,[3],++ (NAUC “++” refers to an observed NAUC 170-140% of positive control)
same,Nauc @ 3 μM,[4],++ (NAUC “++” refers to an observed NAUC 170-140% of positive control)
same,Nauc @ 10 μM,[5],+++ (NAUC “+++” refers to an observed NAUC>170% of positive control)
O=C(O)[C@H]1[C@@H](C(=O)N(c2cc(Cl)cc(Cl)c2)C2CC(O)C2)[C@H]2CC(F)(F)CN2[C@]12C(=O)Nc1c(Cl)cc(Cl)cc12 (stereo partly drawn) [Example 158],Nauc @ 1 μM,[3],+ (NAUC “+” refers to an observed NAUC <140% of positive control)
same,Nauc @ 3 μM,[4],+ (NAUC “+” refers to an observed NAUC <140% of positive control)
O=C(Nc1n[nH]c2ccc(F)cc12)[C@H]1[C@H]2CC(F)(F)CN2[C@]2(C(=O)Nc3c(Cl)cc(Cl)cc32)[C@H]1C(=O)O [Example 130],Nauc @ 1 μM,[6],+ (NAUC “+” refers to an observed NAUC <140% of positive control)
same,Nauc @ 3 μM,[1],+ (NAUC “+” refers to an observed NAUC <140% of positive control)
Cc1cccc(CCNC(=O)C2C3CC(F)(F)CN3C3(C(=O)Nc4c(Cl)cc(Cl)cc43)C2C(=O)O)c1 (stereo not drawn) [Example 48],Nauc @ 3 μM,[1],++ (NAUC “++” refers to an observed NAUC 170-140% of positive control)
same,Nauc @ 10 μM,[2],+++ (NAUC “+++” refers to an observed NAUC>170% of positive control)
O=C(Nc1cc(Cl)c(OC(F)F)c(Cl)c1)C1C2CCCN2C2(C(=O)Nc3c(Cl)cc(Cl)cc32)C1C(=O)O (stereo not drawn) [Example 19],Nauc @ 3 μM,[1],++ (NAUC “++” refers to an observed NAUC 170-140% of positive control)
same,Nauc @ 10 μM,[2],+++ (NAUC “+++” refers to an observed NAUC>170% of positive control)
"CN(C(=O)[C@H]1[C@H]2CCCCN2[C@]2(C(=O)Nc3c(Cl)cc(Cl)cc32)[C@H]1C(=O)O)c1cc(Cl)cc(Cl)c1 (racemic) [Example 219, rac-(1′R,2′S,3R,8a′R)-5,7-dichloro-1′-((3,5-dichlorophenyl)(methyl)carbamoyl)-2-oxo-1′,5′,6′,7′,8′,8a′-hexahydro-2′H-spiro[indoline-3,3′-indolizine]-2′-carboxylic acid]",Nauc @ 1 μM,[3],++ (NAUC “++” refers to an observed NAUC 170-140% of positive control)
same,Nauc @ 3 μM,[4],+ (NAUC “+” refers to an observed NAUC <140% of positive control)
CCCN(C(=O)[C@H]1[C@H]2CC(F)(F)CN2[C@]2(C(=O)Nc3c(Cl)cc(Cl)cc32)[C@H]1C(=O)O)c1cc(Cl)cc(Cl)c1 [Example 172],Nauc @ 1 μM,[3],+++ (NAUC “+++” refers to an observed NAUC>170% of positive control)
same,Nauc @ 3 μM,[4],+++ (NAUC “+++” refers to an observed NAUC>170% of positive control)
same,Nauc @ 10 μM,[5],+++ (NAUC “+++” refers to an observed NAUC>170% of positive control)
O=C(O)[C@H]1[C@@H](C(=O)N(CC2CCC2)c2cc(Cl)cc(Cl)c2)[C@H]2CC(F)(F)CN2[C@]12C(=O)Nc1c(Cl)cc(Cl)cc12 [Example 148],Nauc @ 1 μM,[3],+++ (NAUC “+++” refers to an observed NAUC>170% of positive control)
same,Nauc @ 3 μM,[4],+++ (NAUC “+++” refers to an observed NAUC>170% of positive control)
same,Nauc @ 10 μM,[5],+++ (NAUC “+++” refers to an observed NAUC>170% of positive control)
O=C(O)[C@H]1[C@@H](C(=O)N(CC2CCCCCC2)c2cc(Cl)cc(Cl)c2)[C@H]2CC(F)(F)CN2[C@]12C(=O)Nc1c(Cl)cc(Cl)cc12 [Example 178],Nauc @ 1 μM,[3],+++ (NAUC “+++” refers to an observed NAUC>170% of positive control)
same,Nauc @ 3 μM,[4],+++ (NAUC “+++” refers to an observed NAUC>170% of positive control)
same,Nauc @ 10 μM,[5],++ (NAUC “++” refers to an observed NAUC 170-140% of positive control)
O=C(Nc1cc(Cl)cc(Cl)c1)C1C(C(F)(F)c2ccccc2Cl)NC2(C(=O)Nc3c(Cl)cc(Cl)cc32)C1C(=O)O (stereo not drawn) [Example 63],Nauc @ 10 μM,[2],+++ (NAUC “+++” refers to an observed NAUC>170% of positive control)
O=C(O)[C@H]1[C@@H](C(=O)N(CC2CCCC2)c2cc(Cl)cc(Cl)c2)[C@H]2CC(F)(F)CN2[C@]12C(=O)Nc1c(Cl)cc(Cl)cc12 [Example 145],Nauc @ 1 μM,[3],+++ (NAUC “+++” refers to an observed NAUC>170% of positive control)
same,Nauc @ 3 μM,[4],+++ (NAUC “+++” refers to an observed NAUC>170% of positive control)
same,Nauc @ 10 μM,[5],+++ (NAUC “+++” refers to an observed NAUC>170% of positive control)
CN1C(C(F)(F)F)C(C(=O)Nc2cc(Cl)cc(Cl)c2)C(C(=O)O)C12C(=O)Nc1c(Cl)cc(Cl)cc12 (stereo not drawn) [Example 43],Nauc @ 3 μM,[1],+++ (NAUC “+++” refers to an observed NAUC>170% of positive control)
same,Nauc @ 10 μM,[2],++ (NAUC “++” refers to an observed NAUC 170-140% of positive control)
O=C(Nc1cc(Cl)cc(Cl)c1)C1C(C(F)(F)c2ccc(C(F)(F)F)cc2)NC2(C(=O)Nc3c(Cl)cc(Cl)cc32)C1C(=O)O (stereo not drawn) [Example 73.b],Nauc @ 10 μM,[2],+ (NAUC “+” refers to an observed NAUC <140% of positive control)
O=C(Nc1cc(Cl)cc(Cl)c1)C1C2N(CCC2(F)F)C2(C(=O)Nc3c(Cl)cc(Cl)cc32)C1C(=O)O (stereo not drawn) [Example 60],Nauc @ 3 μM,[1],+++ (NAUC “+++” refers to an observed NAUC>170% of positive control)
same,Nauc @ 10 μM,[2],+++ (NAUC “+++” refers to an observed NAUC>170% of positive control)
O=C(Nc1cc(Cl)cc(Cl)c1)C1CN(C(=O)NCc2ccccc2)C2(C(=O)Nc3c(Cl)cc(Cl)cc32)C1C(=O)O (stereo not drawn) [Example 31],Nauc @ 3 μM,[1],+ (NAUC “+” refers to an observed NAUC <140% of positive control)
same,Nauc @ 10 μM,[2],+++ (NAUC “+++” refers to an observed NAUC>170% of positive control)

# — patent publication US20230055237A1, “COMPOUNDS AND METHODS FOR THE TREATMENT OF CYSTIC FIBROSIS” (Flatley Discovery Lab, LLC, priority 2019, published 2023)
